One test deals with GdauCSP4 (Galeruca daurica, UniProt A0A1W6GWH1). The test can be described thus: Fluorescence competitive binding assay (1-NPN reporter), recombinant GdauCSP4. Conditions: for Ki: Ki = IC50/(1 + [1-NPN]/K1-NPN). Here is the method:
(§1) Fluorescence-binding assays were performed using a 970CRT spectrofluorophotometer (Hitachi, Japan). Instrument parameters were set as follows: Excitation slit of 10 nm, emission slit of 10 nm, sensitivity of 2 s, excitation wavelength of 337 nm, and scanning emission wavelength range of 350–700 nm. In order to measure the affinity of the fluorescent ligand 1-NPN (N-phenyl-1-naphthylamine) with the six recombinant proteins, the recombinant proteins were diluted to 2 μM in 50 mM Tris–HCl (pH 7.4) and added into a 1-cm light path quartz cuvette. Fluorescence values were recorded after the 1-NPN solution was added successively. The dissociation constant K1–NPN was calculated using GraphPad Prism 7.0 software.
(§2) Thirteen main volatiles of the host plant (A. mongolicum) were selected as competing ligands for the fluorescence competitive binding assays (Table 1). All ligands were purchased from Sigma-Aldrich (St. Louis, MO, United States). These ligands were dissolved in methanol (HPLC grade) to make stock solutions of 1 mM, which were added into a 2-μM protein solution with 1-NPN saturated. […] Three duplications were used in the binding experiment. The curves were fitted using Scatchard plots. The dissociation constants (Ki) of the competitive ligands were calculated based on the equation: Ki = IC50/(1 + [1−NPN]/K1−NPN), where IC50 is the concentration of a competitor that results in a 50% reduction of the initial fluorescence intensity, and [1-NPN] and K1–NPN are the free concentration of 1-NPN and the dissociation constant of the recombinant protein/1-NPN complex, respectively ([Campanacci et al., 2001]).

The target of a further test is GdauOBP6 (Galeruca daurica, UniProt A0A1U9W4Z8). The test can be described thus: Fluorescence competitive binding assay (1-NPN reporter), recombinant GdauOBP6. Conditions: for Ki: Ki = IC50/(1 + [1-NPN]/K1-NPN). Here is the method:
as §1, §2

Another test deals with GdauOBP1 (Galeruca daurica, UniProt A0A1U9W4Y5). As to the kind of experiment: Fluorescence competitive binding assay (1-NPN reporter), recombinant GdauOBP1. Conditions: for Ki: Ki = IC50/(1 + [1-NPN]/K1-NPN). Here is the method: as §1, §2
Another test has as its target GdauOBP15 (Galeruca daurica, UniProt A0A1U9W4Z9). As to the kind of experiment: Fluorescence competitive binding assay (1-NPN reporter), recombinant GdauOBP15. Conditions: for Ki: Ki = IC50/(1 + [1-NPN]/K1-NPN). Here is the method: as §1, §2
For another test, the target named is GdauCSP5 (Galeruca daurica, UniProt A0A1W6GWH8). The test can be described thus: Fluorescence competitive binding assay (1-NPN reporter), recombinant GdauCSP5. Conditions: for Ki: Ki = IC50/(1 + [1-NPN]/K1-NPN). Here is the method: as §1, §2
For test [1], the system named is G. daurica antennae. As to the kind of experiment: Electroantennogram (EAG) of dsRNA-CSP5-injected adults to host plant volatiles. Further details: species or system Galeruca daurica. Conditions: dsRNA-CSP5-injected females vs dsRNA-GFP control; 10 μL of 1 mol/L odorant. Here is the method: (§3) Two microliters of dsRNA (1,000 μg/μL) was injected into the intersegmental membrane between the fourth and fifth abdominal segments of 3-day-old adult females and males using a microinjector (Shimadzu, Japan). All the treated insects, including dsRNA-OBP15-injected, dsRNA-CSP5-injected, and dsRNA-GFP-injected, were reared under natural temperature conditions in the lab. Samples were taken 48 h later for interference efficiency measurement and electroantennogram analysis.
Electroantennograms were conducted to record the antennal responses of dsRNA-OBP15-injected, dsRNA-CSP5-injected, and dsRNA-GFP-injected to 12 plant volatiles. These odorants were dissolved in dichloromethane (HPLC grade) to make stock solutions of 1 mol/L, and dichloromethane alone served as solvent control. The antennae were cut off at the base, and the ends were removed then attached to the electrode with electrode gel. Filter paper strips (1 cm × 0.5 cm) were loaded with 10 μL of each chemical solution and then inserted into a Pasteur pipette. The tube was connected to an air stimulus controller (CS-55; SynTech). The signals were detected by a high-impedance amplifier (IDAC-2; SynTech) and analyzed using SynTech software (GC-EAD 2014 v1.2.5). The pulse duration time was 0.2 s with a stimulation interval of 30 s, and each compound was tested three times for each antenna. It was taken as the absolute value of the difference value between the maximum amplitude achieved by the odor stimulus and the baseline level. Each antenna was stimulated three times. All EAG results are presented as the mean EAG values from six female or male antennae.
The binding assay curve was fitted by GraphPad Prism 7.0, using the least squares (ordinary) fit of the second-order polynomial. Data from qPCR and EAG assays were analyzed using SPSS Statistics 17.0. T-test (P < 0.05) was used to analyze the differences among the groups.

Test [2] relates to G. daurica antennae. The test can be described thus: Electroantennogram (EAG) of dsRNA-OBP15-injected adults to host plant volatiles. Further details: species or system Galeruca daurica. Conditions: dsRNA-OBP15-injected females vs dsRNA-GFP control; 10 μL of 1 mol/L odorant. Here is the method:
as §3
Electroantennograms were conducted to record the antennal responses of dsRNA-OBP15-injected, dsRNA-CSP5-injected, and dsRNA-GFP-injected to 12 plant volatiles. These odorants were dissolved in dichloromethane (HPLC grade) to make stock solutions of 1 mol/L, and dichloromethane alone served as solvent control. The antennae were cut off at the base, and the ends were removed then attached to the electrode with electrode gel. Filter paper strips (1 cm × 0.5 cm) were loaded with 10 μL of each chemical solution and then inserted into a Pasteur pipette. […] The signals were detected by a high-impedance amplifier (IDAC-2; SynTech) and analyzed using SynTech software (GC-EAD 2014 v1.2.5). […]
The binding assay curve was fitted by GraphPad Prism 7.0, using the least squares (ordinary) fit of the second-order polynomial. Data from qPCR and EAG assays were analyzed using SPSS Statistics 17.0. […]

Another test addresses GdauOBP10 (Galeruca daurica, UniProt A0A1U9W4Z5). The test can be described thus: Fluorescence competitive binding assay (1-NPN reporter), recombinant GdauOBP10. Conditions: for Ki: Ki = IC50/(1 + [1-NPN]/K1-NPN). Here is the method:
as §1, §2

Where [3] appears, read: GdauCSP4, 2 μM protein, 1-NPN saturated, 50 mM Tris–HCl pH 7.4, read-out: IC50.
Setting [4] is: GdauOBP6, 2 μM protein, 1-NPN saturated, 50 mM Tris–HCl pH 7.4, read-out: IC50.
Setting [5] is: GdauOBP15, 2 μM protein, 1-NPN saturated, 50 mM Tris–HCl pH 7.4, read-out: IC50.
Where [6] appears, read: GdauCSP5, 2 μM protein, 1-NPN saturated, 50 mM Tris–HCl pH 7.4, read-out: IC50.
Where [7] appears, read: GdauOBP10, 2 μM protein, 1-NPN saturated, 50 mM Tris–HCl pH 7.4, read-out: IC50.
Where [8] appears, read: GdauOBP1, 2 μM protein, 1-NPN saturated, 50 mM Tris–HCl pH 7.4, read-out: IC50.

SMILES strings stand for the structures. Read-outs that look alike come from different tables or passages of the source.

In general, IC50 refers to the concentration that inhibits the measured activity by half. For orientation: Kd means the free concentration of one partner at which half of the binding sites on the other are occupied at equilibrium, for simple one-to-one binding. One may read the Ki as the equilibrium dissociation constant of an inhibitor or competing ligand from its target.

GdauOBP1, sequence (A0A1U9W4Y5 entry or part of it): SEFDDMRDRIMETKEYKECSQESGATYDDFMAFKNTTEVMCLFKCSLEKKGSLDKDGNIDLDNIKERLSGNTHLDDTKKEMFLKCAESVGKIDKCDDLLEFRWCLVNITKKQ
GdauOBP10, sequence (A0A1U9W4Z5 entry or part of it): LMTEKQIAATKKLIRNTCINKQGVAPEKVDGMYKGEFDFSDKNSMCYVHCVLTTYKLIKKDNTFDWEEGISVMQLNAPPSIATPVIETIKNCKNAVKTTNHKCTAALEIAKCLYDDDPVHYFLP
GdauCSP5, sequence (A0A1W6GWH8 entry or part of it): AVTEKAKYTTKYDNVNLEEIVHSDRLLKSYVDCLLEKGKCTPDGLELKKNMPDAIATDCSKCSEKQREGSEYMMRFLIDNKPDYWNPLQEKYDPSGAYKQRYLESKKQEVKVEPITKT
GdauCSP4, sequence (A0A1W6GWH1 entry or part of it): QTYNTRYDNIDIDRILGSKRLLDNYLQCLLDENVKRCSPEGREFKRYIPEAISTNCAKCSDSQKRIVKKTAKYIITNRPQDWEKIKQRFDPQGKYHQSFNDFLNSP
GdauOBP15, sequence (A0A1U9W4Z9 entry or part of it): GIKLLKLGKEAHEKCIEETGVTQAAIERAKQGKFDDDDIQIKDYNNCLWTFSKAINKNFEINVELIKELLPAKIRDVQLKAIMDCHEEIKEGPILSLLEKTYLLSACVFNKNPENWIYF
GdauOBP6, sequence (A0A1U9W4Z8 entry or part of it): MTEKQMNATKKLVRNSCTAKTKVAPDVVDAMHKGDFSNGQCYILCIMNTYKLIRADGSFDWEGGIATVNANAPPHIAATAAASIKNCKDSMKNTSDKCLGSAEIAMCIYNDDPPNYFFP

Turning to `C=CCSSCC=C` [Diallyl disulfide], the IC50 at GdauCSP4 was found to be 23.5 µM; at GdauOBP6, 72.1 µM; on GdauOBP1, 97.1 µM; on GdauOBP15, 42.3 µM; at GdauCSP5, 61.6 µM.

For `CCCC=CC=O` [2-hexenal, 2-Hexenal], the IC50 turned out to be 17.5 µM at GdauCSP4; 33.9 µM at GdauOBP6; 95.9 µM at GdauOBP1; 41.7 µM on GdauOBP15; 34.4 µM on GdauCSP5; 85.5 µM at GdauOBP10. Also, the “EAG response compared to the control” value in the test with G. daurica antennae [1] is “significantly lower”; with G. daurica antennae [2] it was “reduced significantly”.

For the compound `C1CSCSC1` [1,3-dithiane], the IC50 amounted to 18.5 µM at GdauCSP4; 36.7 µM at GdauOBP6; 70.6 µM at GdauOBP1; 57.2 µM at GdauOBP15; 50 µM at GdauCSP5; 59.5 µM at GdauOBP10. Moreover, the “EAG response compared to the control” value in the test on G. daurica antennae [1] is recorded as “significantly lower”.

With `c1ccc(Nc2cccc3ccccc23)cc1` [1-NPN, N-phenyl-1-naphthylamine, reference compound], the Kd at GdauCSP4 stood at 18.9 µM; on GdauOBP6, 11.8 µM; at GdauOBP1, 11.4 µM; at GdauOBP15, 14.6 µM; on GdauCSP5, 5.34 µM; on GdauOBP10, 6.54 µM.

`Cc1ccc(C)cc1` [p-xylene, p-Xylene]: the IC50 came out at 19.7 µM on GdauCSP4; 72.5 µM on GdauOBP6; 84.7 µM on GdauOBP1; 49.9 µM at GdauOBP15; 55.7 µM at GdauCSP5; 58 µM at GdauOBP10. For the same compound, in the test on G. daurica antennae [1], the “EAG response compared to the control” value is “significantly lower”.

As for `CCCCCC=O` [Hexanal], the IC50 at GdauCSP4 is 15.4 µM; on GdauOBP6 it was 32.3 µM; on GdauOBP1 it was 70.8 µM; on GdauOBP15 it was 68.8 µM; at GdauCSP5, 61.4 µM; on GdauOBP10, 52 µM. In addition, in the test on G. daurica antennae [1], the “EAG response compared to the control” value is “significantly lower”.

For `C=CCSCC=C` [Diallyl sulfide], the IC50 at GdauCSP4 (setting [3]) was determined as 43.8 µM; on GdauOBP6 (setting [4]), 55 µM; on GdauOBP15 (setting [5]) it was 48.1 µM; on GdauCSP5 (setting [6]) it was 72.2 µM; at GdauOBP10 (setting [7]), 77.8 µM. Further, the Ki at GdauCSP4 (GdauCSP4) stood at 39.7 µM; on GdauOBP6 (GdauOBP6) it was 47.3 µM; on GdauOBP15 (GdauOBP15), 42.4 µM; at GdauCSP5 (GdauCSP5), 53.1 µM; at GdauOBP10 (GdauOBP10), 60.1 µM.

As for `CSSSC` [Dimethyl trisulfide], the IC50 on GdauCSP4 (setting [3]) was determined as 16.6 µM; at GdauOBP6 (setting [4]) it was 44.5 µM; on GdauOBP1 (setting [8]) it was 63.2 µM; at GdauOBP15 (setting [5]) it was 56.7 µM; at GdauCSP5 (setting [6]), 53.7 µM; on GdauOBP10 (setting [7]) it was 67.4 µM. Further, the Ki is 15 µM at GdauCSP4 (GdauCSP4); 38.2 µM at GdauOBP6 (GdauOBP6); 54 µM on GdauOBP1 (GdauOBP1); 50 µM at GdauOBP15 (GdauOBP15); 39.5 µM at GdauCSP5 (GdauCSP5); 52.1 µM on GdauOBP10 (GdauOBP10). In addition, the “EAG response compared to the control” value in the test on G. daurica antennae [1] is on record as “significantly lower”.

On to `CCC/C=C\CO` [(Z)-2-hexen-1-ol, (Z)-2-Hexen-1-ol], for which the IC50 stood at 50 µM at GdauCSP4; 33 µM at GdauOBP6; 86.4 µM on GdauOBP1; 76 µM at GdauOBP15; 95.6 µM on GdauOBP10.

Regarding `COC(=O)c1ccccc1` [Methyl benzoate], the IC50 came to 13.3 µM at GdauCSP4; 36.4 µM at GdauOBP6; 65.4 µM on GdauOBP1; 35.9 µM on GdauOBP15; 44.3 µM at GdauCSP5; 73.9 µM on GdauOBP10. Also, the “EAG response compared to the control” value in the test with G. daurica antennae [1] was “significantly lower”.

For `CSSC` [Dimethyl disulfide], the IC50 on GdauCSP4 (setting [3]) came to 23.1 µM; at GdauOBP6 (setting [4]), 29.9 µM; at GdauOBP1 (setting [8]) it was 64.9 µM; on GdauOBP15 (setting [5]), 26.2 µM; on GdauCSP5 (setting [6]), 36 µM; at GdauOBP10 (setting [7]), 61.9 µM. The Ki at GdauCSP4 (GdauCSP4) worked out at 21 µM; at GdauOBP6 (GdauOBP6), 25.7 µM; at GdauOBP1 (GdauOBP1), 55.4 µM; at GdauOBP15 (GdauOBP15), 23.1 µM; on GdauCSP5 (GdauCSP5), 26.5 µM; on GdauOBP10 (GdauOBP10), 47.8 µM.

For `C=CC(=C)CCC=C(C)C` [Myrcene], the IC50 was determined as 68.7 µM at GdauOBP6 (setting [4]), 82.6 µM on GdauOBP1 (setting [8]) and 84.2 µM on GdauCSP5 (setting [6]). Also, the values for the Ki on GdauOBP6 (GdauOBP6), on GdauOBP1 (GdauOBP1) and on GdauCSP5 (GdauCSP5) were 59 µM, 70.6 µM and 61.9 µM, respectively. In the test with G. daurica antennae [1], the “EAG response compared to the control” value is reported as “significantly lower”.

`C1=CC=CCC=C1` [1,3,5-cycloheptatriene, 1,3,5-Cycloheptatriene]: the IC50 worked out at 23.4 µM at GdauCSP4 (setting [3]); 80.5 µM on GdauOBP6 (setting [4]); 63 µM at GdauOBP1 (setting [8]); 51.7 µM on GdauOBP15 (setting [5]); 45.5 µM on GdauCSP5 (setting [6]); 59.9 µM on GdauOBP10 (setting [7]). Besides, the Ki at GdauCSP4 (GdauCSP4) stood at 21.2 µM; at GdauOBP6 (GdauOBP6) it was 69.2 µM; on GdauOBP1 (GdauOBP1) it was 53.8 µM; at GdauOBP15 (GdauOBP15), 45.6 µM; at GdauCSP5 (GdauCSP5), 33.5 µM; on GdauOBP10 (GdauOBP10), 46.2 µM. Besides, in the test on G. daurica antennae [1], the “EAG response compared to the control” value was “significantly lower”.

The values above are taken from paper PMC8221581, “Functional Characterization of Olfactory Proteins Involved in Chemoreception of Galeruca daurica” (Frontiers in Physiology, 2021).
